Measured values published in ChEMBL document CHEMBL5131443, “Discovery of a benzimidazole-based dual FLT3/TrKA inhibitor targeting acute myeloid leukemia” (Bioorg Med Chem, 2022).
Active and inactive are the calls of the source. The rule behind the calls is not given here.

Tests used:
[1] = target: Tyrosine-protein kinase ABL1 (Homo sapiens) (UniProt P00519); assay: Inhibition of His-tagged recombinant human ABL1 at 1 uM
MOLM-13 [2] = assay: Induction of apoptosis in human MOLM-13 cells assessed as increase number of apoptotic cells at 10 to 50 nM measured after 72 hrs by propidium iodide staining based flow cytometry; format: functional, cell-based; details: dose 10-50 nM
MV4-11 [3] = assay: Inhibition of colony formation in human MV4-11 cells at 500 nM measured after 14 days; format: functional, cell-based; details: time 14.0 day
MOLM-13 [4] = assay: Inhibition of colony formation in human MOLM-13 cells at 500 nM measured after 7 days; format: functional, cell-based; details: time 7.0 day
KM12 = assay: Anticancer activity against human KM12 cells assessed as cell viability after 72 hrs by ATP Cell Titer G1oTM assay; format: functional, cell-based; details: KM12, 72 h
[5] = test system: Receptor-type tyrosine-protein kinase FLT3 (Homo sapiens), P36888 [UNDEFINED MUTATION]; assay: Inhibition of FLT3-ITD mutant in human MOLM-13 cells assessed as decrease in Erk1/2 phosphorylation measured after 24 to 48 hrs by Western blot analysis; format: cell-based; details: dose 10-100 nM, time 24-48 hrs, DDE = dose-dependent effect
[6] = test system: Receptor-type tyrosine-protein kinase FLT3 (Homo sapiens), P36888 [UNDEFINED MUTATION]; assay: Inhibition of FLT3-ITD mutant in human MOLM-13 cells assessed as decrease in p-S6 kinase level measured after 24 to 48 hrs by Western blot analysis; format: cell-based; details: dose 10-100 nM, time 24-48 hrs, DDE = dose-dependent effect
[7] = test system: Receptor-type tyrosine-protein kinase FLT3 (Homo sapiens), P36888 [UNDEFINED MUTATION]; assay: Inhibition of FLT3-ITD mutant in human MV4-11 cells assessed as decrease in p-S6 kinase level measured after 24 to 48 hrs by Western blot analysis; format: cell-based; details: dose 10-100 nM, time 24-48 hrs, DDE = dose-dependent effect
[8] = test system: Receptor-type tyrosine-protein kinase FLT3 (Homo sapiens), P36888 [UNDEFINED MUTATION]; assay: Inhibition of FLT3-ITD mutant in human MV4-11 cells assessed as decrease in Erk1/2 phosphorylation measured after 24 to 48 hrs by Western blot analysis; format: cell-based; details: dose 10-100 nM, time 24-48 hrs, DDE = dose-dependent effect
MOLM-13 [9] = assay: Cell cycle arrest in human MOLM-13 cells assessed as accumulation at G0/G1 phase at 10 to 50 nM measured after 72 hrs by flow cytometry; format: functional, cell-based; details: dose 10-50 nM
MV4-11 [10] = assay: Cell cycle arrest in human MV4-11 cells assessed as accumulation at G0/G1 phase at 10 to 50 nM measured after 72 hrs by flow cytometry; format: functional, cell-based; details: dose 10-50 nM
MV4-11 [11] = assay: Induction of apoptosis in human MV4-11 cells assessed as increase number of apoptotic cells at 10 to 50 nM measured after 72 hrs by propidium iodide staining based flow cytometry; format: functional, cell-based; details: dose 10-50 nM
MV4-11 [12] = assay: Induction of apoptosis in human MV4-11 cells assessed as increase number of necrotic cells at 10 to 50 nM measured after 72 hrs by propidium iodide staining based flow cytometry; format: functional, cell-based; details: dose 10-50 nM
MOLM-13 [13] = assay: Induction of apoptosis in human MOLM-13 cells assessed as increase number of necrotic cells at 10 to 50 nM measured after 72 hrs by propidium iodide staining based flow cytometry; format: functional, cell-based; details: dose 10-50 nM
BNL = assay: Cytotoxicity against mouse BNL cells assessed as cell viability at 10 to 50 nM measured after 72 hrs by ATP Cell titer-Glo assay; format: toxicity, cell-based; details: 0.05 µM, dose 10-50 nM
H9c2 = assay: Cytotoxicity against rat H9c2 cells assessed as cell viability at 10 to 50 nM measured after 72 hrs by ATP Cell titer-Glo assay; format: toxicity, cell-based; details: h9c2, 72 h, 0.05 µM, dose 10-50 nM
[14] = target: CDK2/Cyclin A2 (Homo sapiens) (UniProt P24941+P20248); assay: Inhibition of His-tagged recombinant full length human CDK2/CyclinA expressed in baculovirus expression system at 1 uM by LanthaScreen assay
[15] = target: Fibroblast growth factor receptor 3 (Homo sapiens) (UniProt P22607); assay: Inhibition of FGFR3 (unknown origin) at 1 uM
[16] = target: Vascular endothelial growth factor receptor 1 (Homo sapiens) (UniProt P17948); assay: Inhibition of human recombinant FLT1 expressed in baculovirus expression system at 1 uM by LanthaScreen assay
[17] = target: Vascular endothelial growth factor receptor 3 (Homo sapiens) (UniProt P35916); assay: Inhibition of human recombinant FLT4 expressed in baculovirus expression system at 1 uM by LanthaScreen assay
[18] = target: Insulin-like growth factor 1 receptor (Homo sapiens) (UniProt P08069); assay: Inhibition of human recombinant IGF1R expressed in baculovirus expression system at 1 uM by LanthaScreen assay
[19] = target: Vascular endothelial growth factor receptor 2 (Homo sapiens) (UniProt P35968); assay: Inhibition of human recombinant KDR expressed in baculovirus expression system at 1 uM by LanthaScreen assay
[20] = target: Mast/stem cell growth factor receptor Kit (Homo sapiens) (UniProt P10721); assay: Inhibition of c-Kit (unknown origin) at 1 uM
[21] = target: Tyrosine-protein kinase Lck (Homo sapiens) (UniProt P06239); assay: Inhibition of human recombinant LCK expressed in baculovirus expression system at 1 uM by LanthaScreen assay
[22] = target: Platelet-derived growth factor receptor alpha (Homo sapiens) (UniProt P16234); assay: Inhibition of PDGFRA (unknown origin) at 1 uM
[23] = target: Platelet-derived growth factor receptor beta (Homo sapiens) (UniProt P09619); assay: Inhibition of human recombinant PDGFRB expressed in baculovirus expression system at 1 uM by LanthaScreen assay
[24] = target: Serine/threonine-protein kinase B-raf (Homo sapiens) (UniProt P15056); assay: Inhibition of B-raf (unknown origin) at 1 uM
[25] = target: Serine/threonine-protein kinase D2 (Homo sapiens) (UniProt Q9BZL6); assay: Inhibition of human recombinant PRKD2 expressed in baculovirus expression system at 1 uM by LanthaScreen assay
[26] = target: Serine/threonine-protein kinase pim-1 (Homo sapiens) (UniProt P11309); assay: Inhibition of human recombinant PIM1 expressed in baculovirus expression system at 1 uM by LanthaScreen assay
[27] = target: Proto-oncogene tyrosine-protein kinase Src (Homo sapiens) (UniProt P12931); assay: Inhibition of human recombinant Src expressed in baculovirus expression system at 1 uM by LanthaScreen assay
[28] = target: BDNF/NT-3 growth factors receptor (Homo sapiens) (UniProt Q16620); assay: Inhibition of human recombinant TrkB expressed in baculovirus expression system at 1 uM by LanthaScreen assay
[29] = target: NT-3 growth factor receptor (Homo sapiens) (UniProt Q16288); assay: Inhibition of human recombinant TrkC expressed in baculovirus expression system at 1 uM by LanthaScreen assay
[30] = target: T1, Receptor-type tyrosine-protein kinase FLT3 (Homo sapiens, UniProt P36888)
Description: Inhibition of recombinant His-tagged human FLT3 (564 to 958 residues) expressed in baculovirus expression system by LanthaScreen assay

[31] = target: T2, Receptor-type tyrosine-protein kinase FLT3 (Homo sapiens, UniProt P36888, ITD)
[32] = target: T3, Receptor-type tyrosine-protein kinase FLT3 (Homo sapiens, UniProt P36888, D835Y)
[33] = target: High affinity nerve growth factor receptor (Homo sapiens, UniProt P04629)
Description: Inhibition of recombinant His-tagged human TrKA expressed in baculovirus expression system by LanthaScreen assay

MOLM-13 [34] = assay: cells; details: Homo sapiens, MOLM-13, 72 h
MV4-11 [35] = assay: cells; details: Homo sapiens, MV4-11, 72 h
[36] = target: T1, Receptor-type tyrosine-protein kinase FLT3; format: cell-based, RS4-11
[37] = target: T2, Receptor-type tyrosine-protein kinase FLT3; format: cell-based, MV4-11
[38] = target: T3, Receptor-type tyrosine-protein kinase FLT3; remark: listed apart in the source

Sequence of Vascular endothelial growth factor receptor 2 (Homo sapiens) (P35968 whole entry): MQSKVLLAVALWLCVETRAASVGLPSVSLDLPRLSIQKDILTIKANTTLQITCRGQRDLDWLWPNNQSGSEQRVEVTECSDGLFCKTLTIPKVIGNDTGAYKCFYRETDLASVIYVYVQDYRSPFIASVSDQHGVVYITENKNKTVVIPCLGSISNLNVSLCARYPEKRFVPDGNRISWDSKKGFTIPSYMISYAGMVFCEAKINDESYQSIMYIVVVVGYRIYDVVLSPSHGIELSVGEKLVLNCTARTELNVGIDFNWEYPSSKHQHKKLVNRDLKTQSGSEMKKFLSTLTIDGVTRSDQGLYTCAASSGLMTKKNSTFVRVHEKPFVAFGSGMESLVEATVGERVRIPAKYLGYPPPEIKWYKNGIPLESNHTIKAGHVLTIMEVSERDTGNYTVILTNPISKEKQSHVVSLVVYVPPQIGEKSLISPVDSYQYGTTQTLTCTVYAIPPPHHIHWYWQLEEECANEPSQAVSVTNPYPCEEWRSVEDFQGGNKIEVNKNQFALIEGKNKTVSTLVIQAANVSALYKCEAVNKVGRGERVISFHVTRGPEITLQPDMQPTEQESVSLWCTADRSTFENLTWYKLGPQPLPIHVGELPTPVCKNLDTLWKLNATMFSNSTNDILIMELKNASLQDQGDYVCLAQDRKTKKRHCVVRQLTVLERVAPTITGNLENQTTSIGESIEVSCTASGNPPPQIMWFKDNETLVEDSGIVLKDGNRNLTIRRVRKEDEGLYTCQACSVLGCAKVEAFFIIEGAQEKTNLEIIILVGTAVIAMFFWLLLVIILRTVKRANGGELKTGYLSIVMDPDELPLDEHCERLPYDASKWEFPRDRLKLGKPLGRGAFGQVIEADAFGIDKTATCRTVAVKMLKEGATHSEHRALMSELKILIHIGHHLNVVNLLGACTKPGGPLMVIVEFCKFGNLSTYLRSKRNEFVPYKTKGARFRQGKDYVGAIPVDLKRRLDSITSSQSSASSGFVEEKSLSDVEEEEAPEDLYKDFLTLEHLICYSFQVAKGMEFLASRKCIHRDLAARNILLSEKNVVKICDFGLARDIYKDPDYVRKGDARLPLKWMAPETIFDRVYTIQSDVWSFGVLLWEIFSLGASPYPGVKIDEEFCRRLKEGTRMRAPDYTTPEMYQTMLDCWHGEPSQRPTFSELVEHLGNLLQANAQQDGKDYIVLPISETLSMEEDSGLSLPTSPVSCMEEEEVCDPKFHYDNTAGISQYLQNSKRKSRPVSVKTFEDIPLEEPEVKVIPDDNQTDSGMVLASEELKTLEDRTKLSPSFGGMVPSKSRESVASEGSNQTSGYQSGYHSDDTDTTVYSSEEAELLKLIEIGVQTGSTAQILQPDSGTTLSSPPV
Sequence of Insulin-like growth factor 1 receptor (Homo sapiens) (P08069 31-736 limits assumed): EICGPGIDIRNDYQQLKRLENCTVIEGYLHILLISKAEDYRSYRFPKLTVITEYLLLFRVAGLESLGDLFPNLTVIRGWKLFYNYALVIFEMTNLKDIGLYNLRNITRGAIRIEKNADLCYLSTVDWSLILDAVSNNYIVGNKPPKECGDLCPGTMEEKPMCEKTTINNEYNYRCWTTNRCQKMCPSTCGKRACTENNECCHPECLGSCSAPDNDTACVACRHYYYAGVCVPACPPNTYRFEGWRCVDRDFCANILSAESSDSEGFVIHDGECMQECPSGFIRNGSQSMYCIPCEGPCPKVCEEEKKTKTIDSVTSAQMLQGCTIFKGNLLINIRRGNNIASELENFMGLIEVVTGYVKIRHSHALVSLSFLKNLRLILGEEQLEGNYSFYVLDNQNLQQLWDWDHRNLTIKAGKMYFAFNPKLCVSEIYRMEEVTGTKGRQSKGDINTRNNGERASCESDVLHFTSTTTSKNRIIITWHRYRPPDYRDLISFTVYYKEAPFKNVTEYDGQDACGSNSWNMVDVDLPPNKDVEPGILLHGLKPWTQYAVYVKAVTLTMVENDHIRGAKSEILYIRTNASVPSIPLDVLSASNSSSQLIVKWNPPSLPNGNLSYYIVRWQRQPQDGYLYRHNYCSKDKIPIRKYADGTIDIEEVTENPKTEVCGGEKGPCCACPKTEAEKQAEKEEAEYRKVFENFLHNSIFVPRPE
Sequence of Insulin-like growth factor 1 receptor (Homo sapiens) (P08069 741-1367 limits assumed): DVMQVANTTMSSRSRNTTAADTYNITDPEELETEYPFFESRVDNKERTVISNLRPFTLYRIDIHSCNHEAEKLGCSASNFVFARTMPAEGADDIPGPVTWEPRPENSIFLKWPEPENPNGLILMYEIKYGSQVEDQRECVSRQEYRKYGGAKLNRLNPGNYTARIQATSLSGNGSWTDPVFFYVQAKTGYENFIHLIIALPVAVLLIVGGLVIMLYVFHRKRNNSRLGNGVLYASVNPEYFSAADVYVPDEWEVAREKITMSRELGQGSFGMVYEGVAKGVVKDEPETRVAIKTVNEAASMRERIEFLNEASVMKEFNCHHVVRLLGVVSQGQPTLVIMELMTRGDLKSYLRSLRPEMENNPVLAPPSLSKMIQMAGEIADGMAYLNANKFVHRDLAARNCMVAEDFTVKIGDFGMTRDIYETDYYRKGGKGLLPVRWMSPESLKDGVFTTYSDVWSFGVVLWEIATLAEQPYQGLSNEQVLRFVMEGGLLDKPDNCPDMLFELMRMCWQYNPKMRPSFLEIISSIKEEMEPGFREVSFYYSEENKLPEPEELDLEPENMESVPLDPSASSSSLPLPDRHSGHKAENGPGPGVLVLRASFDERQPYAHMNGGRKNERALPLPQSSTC
Sequence of Proto-oncogene tyrosine-protein kinase Src (Homo sapiens) (P12931 2-536 limits assumed): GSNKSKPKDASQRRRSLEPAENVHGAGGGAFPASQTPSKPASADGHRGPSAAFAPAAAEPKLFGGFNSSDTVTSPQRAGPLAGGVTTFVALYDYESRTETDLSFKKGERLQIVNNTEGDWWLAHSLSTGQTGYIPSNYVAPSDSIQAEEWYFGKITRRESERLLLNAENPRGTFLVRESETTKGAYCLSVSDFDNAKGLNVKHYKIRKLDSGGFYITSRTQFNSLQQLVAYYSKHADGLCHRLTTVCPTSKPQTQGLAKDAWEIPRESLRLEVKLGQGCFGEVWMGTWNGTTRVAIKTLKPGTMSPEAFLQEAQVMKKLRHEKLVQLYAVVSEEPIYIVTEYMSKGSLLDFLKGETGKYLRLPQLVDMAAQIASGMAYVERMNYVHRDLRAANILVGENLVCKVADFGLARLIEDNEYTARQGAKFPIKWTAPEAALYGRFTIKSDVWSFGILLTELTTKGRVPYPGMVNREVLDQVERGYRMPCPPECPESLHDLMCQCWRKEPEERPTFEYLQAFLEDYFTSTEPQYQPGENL
Sequence of Serine/threonine-protein kinase D2 (Homo sapiens) (Q9BZL6 whole entry): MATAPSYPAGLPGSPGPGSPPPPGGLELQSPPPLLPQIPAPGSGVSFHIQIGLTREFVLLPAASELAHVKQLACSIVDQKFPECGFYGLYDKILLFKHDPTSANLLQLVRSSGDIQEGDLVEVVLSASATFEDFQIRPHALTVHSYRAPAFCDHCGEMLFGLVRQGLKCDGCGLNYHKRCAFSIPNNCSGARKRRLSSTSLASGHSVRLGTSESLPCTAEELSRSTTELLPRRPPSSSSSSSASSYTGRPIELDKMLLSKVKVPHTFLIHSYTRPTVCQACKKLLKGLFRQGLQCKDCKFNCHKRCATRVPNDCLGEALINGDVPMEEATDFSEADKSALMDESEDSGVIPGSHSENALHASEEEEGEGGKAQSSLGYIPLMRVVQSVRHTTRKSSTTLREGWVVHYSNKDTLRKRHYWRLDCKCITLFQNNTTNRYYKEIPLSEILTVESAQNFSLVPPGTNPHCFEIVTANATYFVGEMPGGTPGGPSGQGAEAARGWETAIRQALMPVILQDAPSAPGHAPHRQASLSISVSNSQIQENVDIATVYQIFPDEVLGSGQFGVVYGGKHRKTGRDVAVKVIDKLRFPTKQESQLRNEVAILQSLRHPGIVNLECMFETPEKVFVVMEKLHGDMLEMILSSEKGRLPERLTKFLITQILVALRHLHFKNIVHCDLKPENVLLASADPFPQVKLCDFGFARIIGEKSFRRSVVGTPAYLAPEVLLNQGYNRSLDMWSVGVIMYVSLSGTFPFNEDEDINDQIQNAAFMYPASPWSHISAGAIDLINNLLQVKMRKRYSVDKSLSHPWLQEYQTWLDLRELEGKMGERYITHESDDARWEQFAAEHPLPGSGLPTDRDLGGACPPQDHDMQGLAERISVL
Sequence of Tyrosine-protein kinase Lck (Homo sapiens) (P06239 2-509 limits assumed): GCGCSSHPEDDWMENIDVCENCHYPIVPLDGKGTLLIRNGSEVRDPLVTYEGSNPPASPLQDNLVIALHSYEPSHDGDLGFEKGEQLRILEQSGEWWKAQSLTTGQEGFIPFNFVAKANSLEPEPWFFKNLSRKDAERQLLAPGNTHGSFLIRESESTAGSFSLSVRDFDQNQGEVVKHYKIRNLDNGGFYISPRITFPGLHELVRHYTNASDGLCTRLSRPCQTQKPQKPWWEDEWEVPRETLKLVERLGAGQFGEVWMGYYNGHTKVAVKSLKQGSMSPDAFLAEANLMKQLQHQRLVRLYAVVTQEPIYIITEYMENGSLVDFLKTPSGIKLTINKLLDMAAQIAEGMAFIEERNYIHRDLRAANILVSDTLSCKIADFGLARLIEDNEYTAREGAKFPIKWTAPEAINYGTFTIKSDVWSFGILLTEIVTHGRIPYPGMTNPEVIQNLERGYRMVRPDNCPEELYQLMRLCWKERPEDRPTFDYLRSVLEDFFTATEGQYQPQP
Sequence of Serine/threonine-protein kinase pim-1 (Homo sapiens) (P11309 whole entry, looked up): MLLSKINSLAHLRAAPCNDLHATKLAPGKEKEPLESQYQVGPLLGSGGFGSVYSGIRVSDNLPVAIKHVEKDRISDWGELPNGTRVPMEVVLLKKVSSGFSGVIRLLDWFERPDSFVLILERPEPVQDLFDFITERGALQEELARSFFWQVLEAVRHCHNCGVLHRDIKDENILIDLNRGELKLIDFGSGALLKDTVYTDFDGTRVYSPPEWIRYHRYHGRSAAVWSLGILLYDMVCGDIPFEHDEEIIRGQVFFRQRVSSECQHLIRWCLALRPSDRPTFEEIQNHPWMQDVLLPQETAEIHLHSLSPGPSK

Question: Which results are given for `CC(=O)Nc1ccc(-n2cnc3cc(-c4ccc(OCCN5CCCCC5)cc4)ccc32)cc1`?
Answer: inhibition [1]: 63%; Activity (MOLM-13 [2]): Active; inhibition (MV4-11 [3]): Active; inhibition (MOLM-13 [4]): Active; IC50 (KM12): 358 nM; inhibition [5]: Dde; inhibition [6]: Dde; inhibition [7]: Dde; inhibition [8]: Dde; Activity (MOLM-13 [9]): Active; Activity (MV4-11 [10]): Active; Activity (MV4-11 [11]): Active; Activity (MV4-11 [12]): Active; Activity (MOLM-13 [13]): Active; Activity (BNL): Non-Toxic; Activity (H9c2): Non-Toxic; inhibition [14]: 2%; inhibition [15]: 13%; inhibition [16]: 13%; inhibition [17]: 24%; inhibition [18]: 11%; inhibition [19]: 77%; inhibition [20]: 36%; inhibition [21]: 78%; inhibition [22]: 41%; inhibition [23]: 33%; inhibition [24]: 5%; inhibition [25]: 19%; inhibition [26]: 9%; inhibition [27]: 27%; inhibition [28]: 70%; inhibition [29]: 79%; IC50 [30]: 43.8 nM; IC50 [31]: 97.2 nM; IC50 [32]: 92.5 nM; IC50 [33]: 23.6 nM; IC50 (MOLM-13 [34]): 38.8 nM; IC50 (MV4-11 [35]): 54.9 nM

Question: How did the IC50 [36] turn out when `CCc1nc(C(N)=O)c(Cc2ccc(N3CCC(N4CCN(C)CC4)CC3)c(OC)c2)nc1CN1CCOCC1` was run?
Answer: The IC50 was 0.29 nM.

Question: What about the IC50 [37] of the same compound?
Answer: The IC50 was 1.8 nM.

Question: And the IC50 [38]?
Answer: The IC50 was 1.6 nM.
